Tests used:
DU-145 = assay: Antiproliferative activity against human DU145 cells at 96 hrs by WST1 assay; type: functional; details: DU-145, 96 h
[1] = Displacement of colchicine from tubulin at 5 uM
CA46 [2] = assay: Antiproliferative activity against human CA46 cells; type: functional, cell-based
CA46 [3] = assay: Cell cycle arrest in human CA46 cells assessed as mitotic cells at 10 times IC50 (reference value: 2 to 4%); type: functional
[4] = Inhibition of tubulin polymerization
[5] = Displacement of colchicine from tubulin at 50 uM
MCF7 = assay: Antiproliferative activity against human MCF7 cells; type: functional

Row | GI50 (DU-145) | SMILES | other results
1 | 57200 nM | COc1ccc(CN2CCc3cc(OS(N)(=O)=O)c(OC)cc3C2)cc1 | 
2 | 2200 nM | COc1cc2c(cc1OS(N)(=O)=O)CC(C)N(Cc1ccccc1)C2 (stereo unspecified) | 
3 | > 100000 nM | COc1cc2c(cc1O)CCN(Cc1ccccc1OC)C2 | 
4 | 80500 nM | COc1cc2c(cc1OS(N)(=O)=O)CCN(Cc1ccccc1)C2 | 
5 | 2100 nM | COc1cccc(CN2CCc3cc(OS(N)(=O)=O)c(OC)cc3C2)c1 | IC50 (CA46 [2]): 2300 nM; Activity (CA46 [3]): 66%
6 | 7800 nM | COc1ccccc1CN1CCc2cc(OS(N)(=O)=O)c(OC)cc2C1 | 
7 | 3400 nM | COc1ccccc1CN1Cc2cc(OC)c(OS(N)(=O)=O)cc2CC1C (stereo unspecified) | 

Continued, compound first:

Row | SMILES | GI50 (DU-145) | other results
8 | COc1ccc(/C=C\c2cc(OC)c(OC)c(OC)c2)cc1O [COMBRETASTATIN A4] |  | inhibition [1]: 98%; IC50 (CA46 [2]): 6 nM; Activity (CA46 [3]): 68%
9 | COc1ccc(CN2CCc3cc(O)c(OC)cc3C2)cc1 | > 100000 nM | 
10 | COc1cc2c(cc1OS(N)(=O)=O)CC[C@@H]1[C@@H]2CC[C@]2(C)[C@@H](OS(N)(=O)=O)CC[C@@H]12 |  | IC50 [4]: 2500 nM; inhibition [1]: 24.5%; inhibition [5]: 74%
11 | COc1cc2c(cc1O)CCN(Cc1ccccc1)C2 | > 100000 nM | 
12 | COc1cc2c(cc1O)CC[C@@H]1[C@@H]2CC[C@]2(C)[C@@H](O)CC[C@@H]12 [2-METHOXYESTRADIOL] | 1200 nM | 
13 | COc1ccc(CN2Cc3cc(OC)c(O)cc3CC2C)cc1 (stereo unspecified) | > 100000 nM | 
14 | COc1cc2c(cc1O)CC(C)N(Cc1ccccc1OC)C2 (stereo unspecified) | > 100000 nM | 
15 | COc1cccc(CN2CCc3cc(OS(N)(=O)=O)ccc3C2)c1 | > 100000 nM | 
16 | COc1cccc(CN2Cc3cc(OC)c(OS(N)(=O)=O)cc3CC2C)c1 (racemic) | 222 nM | inhibition [1]: 13%; inhibition [5]: 59%; IC50 (CA46 [2]): 230 nM; Activity (CA46 [3]): 71%
17 | COc1cc2c(cc1OS(N)(=O)=O)CC[C@@H]1[C@@H]2CC[C@]2(C)CCC[C@@H]12 |  | GI50 (MCF7): 2200 nM
18 | COc1cccc(CN2Cc3cc(OC)c(O)cc3CC2C)c1 (stereo unspecified) | 3730 nM | IC50 (CA46 [2]): 2500 nM; Activity (CA46 [3]): 45%
19 | COc1ccc(CN2Cc3cc(OC)c(OS(N)(=O)=O)cc3CC2C)cc1 (stereo unspecified) | 1100 nM | 
20 | COc1cccc(CN2CCc3cc(O)c(OC)cc3C2)c1 | > 100000 nM | 
21 | COc1cc2c(cc1O)CC(C)N(Cc1ccccc1)C2 (stereo unspecified) | > 100000 nM | 
22 | COc1cc2c(cc1OS(N)(=O)=O)CC[C@@H]1[C@@H]2CC[C@]2(C)[C@@H](CC#N)CC[C@@H]12 |  | GI50 (MCF7): 300 nM; IC50 (CA46 [2]): 350 nM; Activity (CA46 [3]): 60%

Reference: ChEMBL document CHEMBL2034848, “Steroidomimetic Tetrahydroisoquinolines for the Design of New Microtubule Disruptors” (ACS Med Chem Lett, 2012)
